Test results: the supplement of paper PMC6045584
± gives the standard deviation of the averaged measurements.

How the values were obtained:
DASATINIB = compound: Cc1nc(Nc2ncc(C(=O)Nc3c(C)cccc3Cl)s2)cc(N2CCN(CCO)CC2)n1 [DASATINIB]; assay: surviving fraction relative to DMSO-only wells; higher = less growth inhibition; settings: exposure time: 5 days
Summary of the method: (§1)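 For each tumour cell line, log-phase cells were put into 384-well plates at 250–500 cells per well, then after 24 hours exposed continuously for five days to inhibitors at 0.5, 1, 5, 10, 50, 100, 500 and 1000 nM. Viability was assessed by CellTiter-Glo luminescence, with surviving fraction expressed relative to the median of DMSO-only wells. Lines were screened three times and retained only if replicate Pearson r exceeded 0.7 and median Z' exceeded 0.3.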

[1] = compound: C[C@@H](Oc1cc(-c2cnn(C3CCNCC3)c2)cnc1N)c1c(Cl)ccc(F)c1Cl; assay: as above; settings: exposure time: 5 days
Summary of the method: as §1

| Test System | surviving fraction (DASATINIB; 0.5 nM) | surviving fraction (DASATINIB; 1 nM) | surviving fraction (DASATINIB; 5 nM) | surviving fraction (DASATINIB; 10 nM) | surviving fraction (DASATINIB; 50 nM) | surviving fraction (DASATINIB; 100 nM) | surviving fraction (DASATINIB; 500 nM) | surviving fraction (DASATINIB; 1000 nM) | surviving fraction ([1]; 0.5 nM) | surviving fraction ([1]; 1 nM) | surviving fraction ([1]; 5 nM) | surviving fraction ([1]; 50 nM) | surviving fraction ([1]; 100 nM) | surviving fraction ([1]; 500 nM) | surviving fraction ([1]; 1000 nM) | surviving fraction ([1]; 10 nM) |
| --- | --- | --- | --- | --- | --- | --- | --- | --- | --- | --- | --- | --- | --- | --- | --- | --- |
| CCK81 LARGE INTESTINE | 0.942 ± 0.19 | 0.774 ± 0.035 | 0.741 ± 0.13 | 0.744 ± 0.059 | 0.577 ± 0.1 | 0.411 ± 0.1 | 0.0847 ± 0.02 | 0.0473 ± 0.012 |  |  |  |  |  |  |  |  |
| G292 BONE | 0.94 ± 0.04 | 0.894 ± 0.036 | 0.811 ± 0.049 | 0.683 ± 0.032 | 0.348 ± 0.013 | 0.269 ± 0.033 | 0.213 ± 0.018 | 0.2077 ± 0.0011 | 0.961 ± 0.025 | 0.971 ± 0.032 | 0.931 ± 0.088 | 0.948 ± 0.038 | 0.871 ± 0.011 | 0.564 ± 0.031 | 0.38 ± 0.01 |  |
| HCC38 BREAST | 0.962 ± 0.17 | 0.868 ± 0.087 | 0.697 ± 0.043 | 0.896 ± 0.17 | 1.01 ± 0.18 | 0.911 ± 0.16 | 0.664 ± 0.1 | 0.583 ± 0.12 | 0.862 ± 0.14 |  | 0.928 ± 0.18 | 1.09 ± 0.22 | 1.13 ± 0.23 |  | 0.66 ± 0.14 | 0.928 ± 0.16 |
| HCC70 BREAST | 1.03 ± 0.094 | 1.04 ± 0.027 | 1.15 ± 0.1 | 0.996 ± 0.079 | 0.902 ± 0.15 | 0.655 ± 0.057 | 0.574 ± 0.14 | 0.581 ± 0.16 |  | 0.95 ± 0.095 |  |  | 1.14 ± 0.12 | 0.964 ± 0.04 | 0.736 ± 0.034 |  |
| HMLE3 BREAST | 0.898 ± 0.042 | 0.856 ± 0.067 | 0.856 ± 0.02 | 0.7 ± 0.013 | 0.776 ± 0.029 | 0.716 ± 0.043 | 0.588 ± 0.023 | 0.553 ± 0.033 | 0.873 ± 0.031 | 0.829 ± 0.028 |  | 0.941 ± 0.063 | 0.843 ± 0.019 | 0.599 ± 0.051 | 0.38 ± 0.011 |  |
| HMT3552 BREAST | 0.913 ± 0.043 | 0.848 ± 0.067 | 0.705 ± 0.013 | 0.612 ± 0.063 | 0.259 ± 0.0081 | 0.15 ± 0.017 | 0.105 ± 0.0076 | 0.123 ± 0.021 |  |  |  | 1.17 |  | 0.393 | 0.211 |  |
| HS57T BREAST | 0.852 ± 0.056 | 0.814 ± 0.024 | 0.832 ± 0.033 | 0.788 ± 0.076 | 0.423 ± 0.022 | 0.37 ± 0.029 | 0.17 ± 0.016 | 0.142 ± 0.0095 | 0.904 ± 0.058 |  |  | 0.971 ± 0.04 | 0.926 ± 0.06 | 0.568 ± 0.016 | 0.492 ± 0.021 | 0.98 ± 0.027 |
| HS578T BREAST | 0.862 ± 0.13 | 0.829 ± 0.15 | 0.669 ± 0.051 | 0.593 ± 0.044 | 0.343 ± 0.029 | 0.252 ± 0.04 | 0.125 ± 0.02 | 0.126 ± 0.012 |  | 0.827 ± 0.12 | 0.845 ± 0.063 | 0.936 ± 0.1 | 0.85 ± 0.1 | 0.552 ± 0.13 | 0.563 ± 0.11 | 0.959 ± 0.16 |
